Measurements as given in patent publication US20250367290A1, “ENGINEERED STEM CELLS AND USES THEREOF” (Umoja Biopharma, Inc., priority 2022, published 2025).

Assays:
TagCAR-RACR iCIL cells = assay: RACR-driven differentiation and expansion of iCIL cells from Day 26 lymphoid progenitors; type: cell-based, human; conditions: AP21967 100 nM, no other cytokine
Source text: The RACR-system was utilized for differentiation to iPSC-derived CIL cells (iCIL cells). The iPSC cell line ATCC-BXS0117 (ATCC #ACS-1031) was differentiated into lymphoid progenitors through the STEMdiff NK cell kit (STEMCELL® Technologies, #100-0170) as described in Example 2 above, up until the Day 26 timepoint. The percentage of cells containing common lymphoid progenitors (CD45+/CD5+/CD7+), CIL precursors (CD45+/CD5−/CD7+), and early CIL cells (CD45+/CD5−/CD7+/CD56+) is seen in FIG. 3D with ˜50% of the cells presenting as CIL precursors and ˜25% of total cells presenting as early CIL cells. In this study, Day 26 cells were pelleted and placed in a CIL expansion media at 2×10^6 cells/mL containing (IL-2, IL-15, IL-21, IL-18, IL-7 in complete RPMI media: RPMI1640, 10% FBS, 1× Pen-Strep, and 1× Glutamax). […]
At Day 27, the cells were transduced with either VSV-G lentivirus with the payload of Tag (anti-FITC) CAR-P2A-FRB-P2A-RACR at an MOI 10 with 10 µg/mL of protamine sulfate or treated with 10 μg/mL or protamine sulfate alone (Mock). […] An aliquot of cells was collected weekly, counted on the Vicell Blu automated cell counter, and stained for CD16 clone 3G8, CD56 clone HCD56, CD45 clone 2D1, CD5 clone L17F12, CD7 clone CD7-6B7 and anti-FITC CAR (TagCAR) detection through FITC-AF647.

RACR-CAR+ cells = assay: Differentiation of RACR-transduced CLP into CIL cells with or without common gamma chain cytokines; type: cell-based, human
RACR-iCILs = assay: Proliferation of D47 RACR-iCILs; type: cell-based; conditions: rapalog 100 nM
Procedure: RACR-iCILs were generated similar to as described in FIG. 18A and FIG. 18B except without SCF and TPO included in the HP medium as described in Example 9 and FIG. 17A. Data shown are from two BE-RACR iPSC clones. At D40 RACR-iCILs were incubated for one week in a maturation medium containing IL-2, IL-7, IL-12, IL-15, IL-18 and activation beads (anti-CD2/NKp46). RACR-iCILs were then incubated with breast adenocarcinoma MDA-MB23 1 cells expressing a nuclear fluorescent protein at a 10:1 […] ratio in the presence of medium alone, cytokines (IL-2/IL-7/IL-15), or rapalog (100 nM). Cell mixtures were placed into an IncuCyte fluorescent microscope and imaged every 2 hours. The number of MDA-MB23 1 cells was quantified over time via a fluorescent marker and graphed as the ratio of MDA-MB23 1 cells compared to time 0 (time 0 is equal to one). […] RACR-iCILs were then collected, placed in fresh media, and then re-exposed to MDA-MB23 1 cells for a rechallenge (FIG. 19A). Proliferation of D47 RACR-iCILs was also evaluated in different cytokine treatments or rapalog (100 nM).

[1] = test system: PSMA-positive human prostate cancer cells; conditions: DUPA-(99m) Tc; cited from earlier work
iCIL cells = assay: iCIL differentiation and expansion in bioreactors; type: cell-based; conditions: iCIL differentiation phase
Procedure: At Day 15 of culture, the differentiated cells were continued in culture for up to 40 days for iCIL cell generation. At Day 21, the GRex bioreactor was seeded with the cells, as described in Example 13. […] Lower seeding densities on days 15 and 24 contributed to increased iCIL yields, while higher seeding densities contributed to higher iCIL yields on Days 30-33 (FIG. 39B). In another experiment, this step was repeated with two different stirred-tank bioreactors at various stages in the protocol.
Thus, Aim V was used as the base medium for the iCIL differentiation phase. Components and supplements in the Aim V medium used during the iCIL differentiation phase were tested for their effect on iCIL yield and cytotoxicity.

[2] = test system: hematopoietic progenitors (CD34+/CD43+/CD45+); assay: HP differentiation phase: rapamycin requirement; type: cell-based
Procedure: RACR iPSCs (edited B2M-EF1a-RACR and knocked out for FKBP12) were cultured in media, as described in Example 9. At day 0-2, embryoid bodies (EBs) were generated from a single cell suspension of iPSCs in STEMdiff APEL 2 Medium (STEMCELL Technologies) supplemented with BMP4, FGF2, VEGF, Y27632, and +/− rapalog (RL; AP21967) or +/− rapamycin (RM). EBs were formed using plates comprising aggregates of microwells (e.g. Aggrewell™ 800 plates) at 500 iPSC/EB or 1000 iPSC/EB, as described in Example 9 and shown in FIG. 34. As shown in FIG. 35A-B, higher iPSC confluency at the start of differentiation contributes to a higher HP yield. Further, a range of 200-250 iPSC/EBs seeded in microwells is optimal to achieve the highest HP yield on day 15 (FIG. 35C).
The differentiating EBs were moved to non-tissue culture treated 6-well plates (Corning) at day 6 and fresh HP Medium was added. Every 3 days from days 3-15, half of the media was replaced with HP Medium.

wildtype iPSCs = assay: iPSC confluency after four days of rapamycin; type: cell-based, human; conditions: four days of treatment
Procedure: (§1) RACR requires rapamycin for activation; however, rapamycin inhibits cell growth. To generate rapamycin resistant cells, the FKBP12 gene was knocked-out. […] In the absence of FKBP12, rapamycin cannot interact with the mTOR complex and thus loses its inhibitory capacity. The efficiency of the knockout was determined by Sanger sequencing. Con1, Con2, or Con3 indicate different electroporation conditions for CRISPR-Cas9 based editing resulting in differing levels of knockout. Phase-contrast images reveal normal iPSC morphology in both wild type and FKBP12 KO cells, FIG. 16B, right panel. The confluency of wildtype iPSCs after four days of treatment with varying doses of rapamycin with inhibition of growth at 1 nM rapamycin or higher is shown in FIG. 16C. […] The ability of clonal FKBP12 KO iPSCs to differentiate to hematopoietic progenitors (HPs) in the presence of rapamycin is shown in FIG. 16E.

FKBP12 KO iPSCs = assay: iPSC confluency during four days of rapamycin; type: cell-based, human; conditions: four days of treatment
Procedure: as §1

[3] = test system: non-Hodgkin's lymphoma tumor cells; assay: RACR-iCIL co-culture cytotoxicity with or without rituximab; type: cell-based; conditions: added to RACR-iCILs
Procedure: (§2) In a similar experiment, RACR-iCILs were cocultured with Burkitt's lymphoma tumor cells or non-Hodgkin's lymphoma tumor cells at a ratio of 2.5:1, 10:1, or 0:1, and stimulated with and without rapamycin and/or cytokines. Additional groups included rituximab. Cytotoxicity was determined by imaging cells across 40 hours, as described in Example 6.

[4] = test system: Burkitt's lymphoma tumor cells; assay: as above; type: cell-based; conditions: added to RACR-iCILs
Procedure: as §2

## CO[C@@H]1C[C@H](C[C@H](C)C2CC(=O)[C@@H](C)/C=C(\C)[C@@H](O)[C@@H](OC)C(=O)[C@H](C)C[C@@H](C)/C=C/C=C/C=C(\C)[C@H](c3c[nH]c4c(C)cccc34)C[C@H]3CC[C@@H](C)[C@@](O)(O3)C(=O)C(=O)N3CCCC[C@H]3C(=O)O2)CC[C@@H]1O (some centres unmarked) [AP21967]
TagCAR-RACR iCIL cells
  iCIL expansion and differentiation: sufficient to drive iCIL expansion in the absence of any other cytokine signaling
RACR-CAR+ cells; 4 nM AP21967, all media conditions, Day 40
  percent of RACR-CAR+CD56+ cells: increase in the percent of RACR-CAR+CD56+ cells
RACR-CAR+ cells; UM729 alone (None) media plus rapalog
  fold change in RACR-CAR+ cells: largest fold change in RACR-CAR+ cells
RACR-iCILs
  total RACR-iCILs one week after stimulation: supported RACR-iCIL growth

## O=C(O)CC[C@H](NC(=O)N[C@@H](CCC(=O)O)C(=O)O)C(=O)O [DUPA]
[1]
  Kd: 14 nM

## CO[C@H]1C[C@@H]2CC[C@@H](C)[C@@](O)(O2)C(=O)C(=O)N2CCCC[C@H]2C(=O)O[C@H]([C@H](C)C[C@@H]2CC[C@@H](O)[C@H](OC)C2)CC(=O)[C@H](C)/C=C(\C)[C@@H](O)[C@@H](OC)C(=O)[C@H](C)C[C@H](C)/C=C/C=C/C=C/1C [rapamycin]
iCIL cells
  lowest rapamycin concentration sufficient to expand iCIL cells: 6.2 nM
[2]
  lowest rapamycin concentration sufficient to produce comparable HP yields: 3.1 nM
Wildtype iPSCs
  rapamycin dose with inhibition of growth (confluency): ≥ 1 nM
FKBP12 KO iPSCs
  rapamycin doses with robust growth (confluency): up to 100 nM

## rituximab: antibody added to RACR-iCIL co-cultures with lymphoma tumor cells
[3]
  further increase of tumor killing: 10%
[4]
  further increase of tumor killing: 10%
